These results are taken from publication PMC5964538, “Prevention of Cyclophosphamide-Induced Immunosuppression in Mice with the Antimicrobial Peptide Sublancin” (Journal of Immunology Research, 2018).

Where a name gives a salt, the structure may show the parent alone.

Data set [1] can be described thus: In vivo fluorescence imaging (biodistribution after oral dose). Also noted: species or system BALB/c mice. The protocol:
To observe the biodistribution of sublancin in vivo, sublancin was labeled with the near-infrared dye Cy7 monoreactive NHS ester (Invitrogen, CA, USA). Female BALB/c mice of 6–8 weeks old were given an oral dose of 100 μL Cy7-stained sublancin or free Cy7. At the indicated time points (0 h, 30 min, 2 h, 6 h, 12 h, 24 h, and 48 h), mice were anesthetized with 2.5% isoflurane and then placed in the in vivo Imaging System (FXPro Kodak). The excitation and emission bandpass filter was 730 nm and 790 nm, respectively. Fluorescence signals were collected by Carestream Molecular Imaging Software. At 12 h, mice were euthanized and the ex vivo optical images of the intestine, heart, liver, spleen, lung, and kidney were recorded using the same system.

Data set [2] has as its system IL-6 mRNA. As to the kind of experiment: IL-6 gene expression in peritoneal macrophages after oral administration (real-time PCR). In kind it is in vivo, BALB/c mice. The note with it: oral 2.5 mg/kg BW/d for 7 days, vs control, P < 0.05, n = 6. Background: In qPCR the cycle at which signal appears reflects the starting amount.
The subject of data set [3] is TNF-α mRNA. Put plainly: TNF-α gene expression in peritoneal macrophages after oral administration (real-time PCR). The note with it: oral 2.5 mg/kg BW/d for 7 days, vs control, P < 0.05, n = 6. Format: in vivo, BALB/c mice.
Data set [4] has as its system IL-1β mRNA. As to the kind of experiment: IL-1β gene expression in peritoneal macrophages after oral administration (real-time PCR). To be noted: oral 2.5 mg/kg BW/d for 7 days, vs control, P < 0.05, n = 6. In kind it is in vivo, BALB/c mice.
Data set [5] is described as follows: Peripheral hemogram analysis in cyclophosphamide-treated mice. Format: in vivo, BALB/c mice. The note with it: gavage 10.0 mg/kg for 7 days, compared with the NC treatment (so in the source), n = 6.

As for `CCN1C(=CC=CC=CC=CC2=[N+](CCCCCC(=O)O)c3ccc(S(=O)(=O)O)cc3C2(C)C)C(C)(C)c2cc(S(=O)(=O)[O-])ccc21` [free Cy7], in data set [1] (12 h after gavage), the “Fluorescence in the excised intestine (ex vivo images)” value was “only very little”; the “Fluorescent signal in the heart, liver, spleen, lung, and kidney (ex vivo images)” value is “Almost no fluorescent signal”. Moreover, the “Presence in the intestine (in vivo fluorescence)” value in data set [1] (oral dose of 100 μL, twelve hours after administration) is listed as “most of the free Cy7 had disappeared”. For the same molecule, the “Fluorescent signal in vivo” value in data set [1] (oral dose of 100 μL, within 6 h) was “weak fluorescent signals”.

As for `c1ccc([C@H]2CN3CCSC3=N2)cc1` [levamisole hydrochloride], in data set [2], the “Gene expression level of IL-6 in peritoneal macrophages” value is on record as “higher than that in the control group”. Further, the “Gene expression level of TNF-α in peritoneal macrophages” value in data set [3] is “higher than that in the control group”. For the same molecule, the “Gene expression level of IL-1β in peritoneal macrophages” value in data set [4] is “higher than that in the control group”. In addition, in data set [5], the HGB result was “higher”, the “Number of RBC” value is listed as “higher”, the “Number of WBC” value is listed as “higher” and the Number of platelets entry is reported as “higher”.
